What was measured:
Assay type in all cases: in vivo
[1] = test system: Echinochloa crus-galli var. formosensis; assay: Test Example 2: herbicidal effect test by application during growth period of paddy rice; settings: Echinochloa crus-galli; 120 g per 10 ares; applied seven days after sowing, flooded pots; 14 days after application; read-out: weed inhibition rate
Outline: (§1)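 Greenhouse pots of flooded paddy soil, seeded shallowly with 30 seeds per weed, are treated on day 7 by dropper with diluted emulsifiable concentrate equal to 120 g a.i./10 a. Duplicate pots are scored for inhibition rate 14 days post-application.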

[2] = test system: Monochoria vaginalis; assay: as above; settings: Pontederia vaginalis; 120 g per 10 ares; applied seven days after sowing, flooded pots; 14 days after application; read-out: weed inhibition rate
Outline: as §1

[3] = test system: Scirpus juncoides; assay: as above; settings: Schoenoplectiella juncoides; 120 g per 10 ares; applied seven days after sowing, flooded pots; 14 days after application; read-out: weed inhibition rate
Outline: as §1

[4] = test system: Digitaria ciliaris; assay: Test Example 7: herbicidal effect test by soil application in upland field (low dose); settings: Digitaria ciliaris, 7.5 g per 10 ares, sprayed one day after sowing, 14 days after application, read-out: weed inhibition rate
Outline: (§2)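 Duplicate pots of alluvial loam, seeds incorporated in the surface 1 cm. Soil surface sprayed 1 d after sowing (EC in water, 100 L/10 a; 7.5 g a.i./10 a). Endpoint: % inhibition, day 14.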

[5] = test system: Echinochloa crus-galli; assay: as above; settings: Echinochloa crus-galli, 7.5 g per 10 ares, sprayed one day after sowing, 14 days after application, read-out: weed inhibition rate
Outline: as §2

[6] = test system: Digitaria ciliaris; assay: Test Example 4: herbicidal effect test by stem and leaf treatment in upland field; settings: Digitaria ciliaris; 120 g per 10 ares; sprayed seven days after sowing, upland soil; 14 days after application; read-out: weed inhibition rate
[7] = test system: Echinochloa crus-galli var. formosensis; assay: Test Example 6: herbicidal effect test by application during growth period of paddy rice (low dose); settings: Echinochloa crus-galli; 7.5 g per 10 ares; applied seven days after sowing, flooded pots; 14 days after application; read-out: weed inhibition rate
Outline: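 Emulsifiable concentrate, water-diluted, dropped onto flooded paddy pots 7 days post-sowing at 7.5 g active ingredient/10 a. Greenhouse-grown weeds; percent inhibition scored at day 14 after treatment.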

[8] = test system: Digitaria ciliaris; assay: Test Example 3: herbicidal effect test by soil application in upland field; settings: Digitaria ciliaris, 120 g per 10 ares, sprayed one day after sowing, 14 days after application, read-out: weed inhibition rate
Outline: (§3)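 Weed inhibition (%) was assessed 14 days after treatment, in duplicate per concentration group. Seeds had been mixed into the upper 1 cm of upland alluvial loam, and the soil surface was sprayed one day later with the diluted emulsifiable concentrate at 120 g active ingredient per 10 ares.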

[9] = test system: Echinochloa crus-galli; assay: as above; settings: Echinochloa crus-galli, 120 g per 10 ares, sprayed one day after sowing, 14 days after application, read-out: weed inhibition rate
Outline: as §3

[10] = test system: Digitaria ciliaris; assay: Test Example 8: herbicidal effect test by stem and leaf treatment in upland field (low dose); settings: Digitaria ciliaris; 7.5 g per 10 ares; sprayed seven days after sowing, upland soil; 14 days after application; read-out: weed inhibition rate
[11] = test system: Echinochloa crus-galli; assay: as above; settings: Echinochloa crus-galli; 7.5 g per 10 ares; sprayed seven days after sowing, upland soil; 14 days after application; read-out: weed inhibition rate

Cc1ccccc1CO[C@@H]1C[C@]2(C(C)C)O[C@@]1(C)C[C@@H]2F [1-2, (1R,2S,4S,5R)-2-fluoro-1-isopropyl-4-methyl-5-((2-methylbenzyl)oxy)-7-oxabicyclo[2.2.1]heptane]
≥ 80%: inhibition at 1200 g/ha [1] | inhibition at 1200 g/ha [2] | inhibition at 1200 g/ha [3] | inhibition at 75 g/ha [4] | inhibition at 75 g/ha [5] | inhibition at 1200 g/ha [6] | inhibition at 75 g/ha [7] | inhibition at 1200 g/ha [8] | inhibition at 1200 g/ha [9] | inhibition at 75 g/ha [10] | inhibition at 75 g/ha [11]

CC(C)[C@]12C[C@@H](OCc3ccccc3)[C@](C)(C[C@@H]1Br)O2 [1-15, (1S,2R,4R,5S)-5-bromo-1-methyl-2-phenylmethoxy-4-isopropyl-7-oxabicyclo[2.2.1]heptane]
≥ 80%: inhibition at 1200 g/ha [1] | inhibition at 1200 g/ha [2] | inhibition at 1200 g/ha [3] | inhibition at 75 g/ha [4] | inhibition at 75 g/ha [5] | inhibition at 1200 g/ha [6] | inhibition at 75 g/ha [7] | inhibition at 1200 g/ha [8] | inhibition at 1200 g/ha [9] | inhibition at 75 g/ha [10] | inhibition at 75 g/ha [11]

CC(C)[C@]12C[C@@H](OCc3cccc(F)c3)[C@](C)(C[C@@H]1Br)O2 [1-690, (1S,2R,4R,5S)-5-bromo-2-[(3-fluorophenyl)methoxy]-1-methyl-4-isopropyl-7-oxabicyclo[2.2.1]heptane]
≥ 80%: inhibition at 1200 g/ha [1] | inhibition at 1200 g/ha [2] | inhibition at 1200 g/ha [3] | inhibition at 75 g/ha [4] | inhibition at 75 g/ha [5] | inhibition at 1200 g/ha [6] | inhibition at 75 g/ha [7] | inhibition at 1200 g/ha [8] | inhibition at 1200 g/ha [9] | inhibition at 75 g/ha [10] | inhibition at 75 g/ha [11]

CO[C@H]1C[C@]2(C)O[C@@]1(C(C)C)C[C@H]2OCc1ccccc1F [1-156, (1S,2R,4R,5S)-2-((2-fluorobenzyl)oxy)-4-isopropyl-5-methoxy-1-methyl-7-oxabicyclo[2.2.1]heptane]
≥ 80%: inhibition at 1200 g/ha [1] | inhibition at 1200 g/ha [2] | inhibition at 1200 g/ha [3] | inhibition at 75 g/ha [4] | inhibition at 75 g/ha [5] | inhibition at 1200 g/ha [6] | inhibition at 75 g/ha [7] | inhibition at 1200 g/ha [8] | inhibition at 1200 g/ha [9] | inhibition at 75 g/ha [10] | inhibition at 75 g/ha [11]

CC(C)C12CC(OCc3ccccc3F)C(C)(CC1Br)O2 (stereo not shown) [1-1355, 5-bromo-2-[(2-fluorophenyl)methoxy]-1-methyl-4-isopropyl-7-oxabicyclo[2.2.1]heptane]
≥ 80%: inhibition at 1200 g/ha [1] | inhibition at 1200 g/ha [2] | inhibition at 1200 g/ha [3] | inhibition at 75 g/ha [4] | inhibition at 75 g/ha [5] | inhibition at 1200 g/ha [6] | inhibition at 75 g/ha [7] | inhibition at 1200 g/ha [8] | inhibition at 1200 g/ha [9] | inhibition at 75 g/ha [10] | inhibition at 75 g/ha [11]

CC(C)[C@]12C=C[C@](C)(O1)C(OCc1ccccc1F)C2 (mixture of isomers) [3-5, (1R,4S,SR)-5-[(2-fluorophenyl)methoxy]-4-methyl-1-isopropyl-7-oxabicyclo[2.2.1]hept-2-ene]
≥ 80%: inhibition at 1200 g/ha [1] | inhibition at 1200 g/ha [2] | inhibition at 1200 g/ha [3] | inhibition at 75 g/ha [4] | inhibition at 75 g/ha [5] | inhibition at 1200 g/ha [6] | inhibition at 75 g/ha [7] | inhibition at 1200 g/ha [8] | inhibition at 1200 g/ha [9] | inhibition at 75 g/ha [10] | inhibition at 75 g/ha [11]

C=C1C[C@]2(C)O[C@@]1(C(C)C)C[C@H]2OCc1ccccc1F [2-88, (1R,4S,5R)-5-((2-fluorobenzyl)oxy)-1-isopropyl-4-methyl-2-methylene-7-oxabicyclo[2.2.1]heptane]
≥ 80%: inhibition at 1200 g/ha [1] | inhibition at 1200 g/ha [2] | inhibition at 1200 g/ha [3] | inhibition at 75 g/ha [4] | inhibition at 75 g/ha [5] | inhibition at 1200 g/ha [6] | inhibition at 75 g/ha [7] | inhibition at 1200 g/ha [8] | inhibition at 1200 g/ha [9] | inhibition at 75 g/ha [10] | inhibition at 75 g/ha [11]

C=CCO[C@H]1C[C@]2(C)O[C@@]1(C(C)C)C[C@H]2OCc1ccccc1F [1-1602, (1S,2R,4R,5S)-2-[(2-fluorophenyl)methoxy]-1-methyl-4-isopropyl-5-prop-2-enoxy-7-oxabicyclo[2.2.1]heptane]
≥ 80%: inhibition at 1200 g/ha [1] | inhibition at 1200 g/ha [2] | inhibition at 1200 g/ha [3] | inhibition at 75 g/ha [4] | inhibition at 75 g/ha [5] | inhibition at 1200 g/ha [6] | inhibition at 75 g/ha [7] | inhibition at 1200 g/ha [8] | inhibition at 1200 g/ha [9] | inhibition at 75 g/ha [10] | inhibition at 75 g/ha [11]

CO[C@H]1C[C@]2(C)O[C@@]1(C(C)C)C[C@H]2OCc1ccccc1C [1-151, (1 S,2R,4R,5S)-4-isopropyl-5-methoxy-l-methyl-2-((2-methylbenzyl)oxy)-7-oxabicyclo[2.2.1]heptane]
≥ 80%: inhibition at 1200 g/ha [1] | inhibition at 1200 g/ha [2] | inhibition at 1200 g/ha [3] | inhibition at 75 g/ha [4] | inhibition at 75 g/ha [5] | inhibition at 1200 g/ha [6] | inhibition at 75 g/ha [7] | inhibition at 1200 g/ha [8] | inhibition at 1200 g/ha [9] | inhibition at 75 g/ha [10] | inhibition at 75 g/ha [11]

CC(C)[C@]12C[C@@H](OCc3c(F)cccc3F)[C@](C)(CC1C)O2 (stereo partly drawn) [1-111, (1S,2R,4R)-2-((2,6-difluorobenzyl)oxy)-4-isopropyl-1,5-dimethyl-7-oxabicyclo[2.2.1]heptane]
≥ 80%: inhibition at 1200 g/ha [1] | inhibition at 1200 g/ha [2] | inhibition at 1200 g/ha [3] | inhibition at 75 g/ha [4] | inhibition at 75 g/ha [5] | inhibition at 1200 g/ha [6] | inhibition at 75 g/ha [7] | inhibition at 1200 g/ha [8] | inhibition at 1200 g/ha [9] | inhibition at 75 g/ha [10] | inhibition at 75 g/ha [11]

CC(C)[C@]12C[C@@H](OCc3c(F)cccc3Br)[C@](C)(C[C@@H]1Br)O2 [1-1600, (1S,2R,4R,5S)-5-bromo-2-[(2-bromo-6-fluorophenyl)methoxy]-1-methyl-4-isopropyl-7-oxabicyclo[2.2.1]heptane]
≥ 80%: inhibition at 1200 g/ha [1] | inhibition at 1200 g/ha [2] | inhibition at 1200 g/ha [3] | inhibition at 75 g/ha [4] | inhibition at 75 g/ha [5] | inhibition at 1200 g/ha [6] | inhibition at 75 g/ha [7] | inhibition at 1200 g/ha [8] | inhibition at 1200 g/ha [9] | inhibition at 75 g/ha [10] | inhibition at 75 g/ha [11]
